System: 12 single or co-culture in vitro tissue models of primary cells
Experiment: Culture/co-culture cell model panel, extracellular biomarkers (DiscoveRx); on CCL2/MCP-1: reference of the scale not given here; on CXCL8/IL-8: reference of the scale not given here; on CXCL9/MIG: reference of the scale not given here; on M-CSF: reference of the scale not given here; on PBMC Cytotoxicity: reference of the scale not given here; on SRB: reference of the scale not given here; on sTNF-alpha: reference of the scale not given here
Type: cell-based, human
Conditions: for sTNF-alpha / B cell Proliferation / PBMC Cytotoxicity / Secreted IgG / sIL-2 / sIL-6 / sIL-17A / sIL-17F: BT; for CCL2/MCP-1 / CD54/ICAM-1 / CD106/VCAM-1 / CXCL8/IL-8 / CXCL9/MIG / CXCL10/IP-10 / CXCL11/I-TAC / Collagen I / Collagen III / EGFR / M-CSF / MMP-1 / PAI-I / Proliferation_72hr / SRB / TIMP-1 / TIMP-2: HDF3CGF stimulated fibroblasts

In the case of `Cc1n[nH]c2ncc(C(=O)N3CCC[C@H]3c3ccc(Cl)cc3)cc12` [CMPD4], the sTNF-alpha (1.00E4 nM) is reported as 0.086, the “B cell Proliferation” value (1.11E3 nM) is reported as 0.005 and the “PBMC Cytotoxicity” value (1.11E3 nM) is reported as 0.008. For the same molecule, the “Secreted IgG” value (1.11E3 nM) was -0.271, the sIL-2 (1.11E3 nM) was -0.010 and the sIL-6 (1.11E3 nM) was 0.011. For the same molecule, the sIL-17A (1.11E3 nM) was 0.280, the sIL-17F (1.11E3 nM) was -0.402 and the sTNF-alpha (1.11E3 nM) was 0.063. The “B cell Proliferation” value (1.23E2 nM) was 0.027, the “PBMC Cytotoxicity” value (1.23E2 nM) was 0.018 and the “Secreted IgG” value (1.23E2 nM) was -0.256. The sIL-2 (1.23E2 nM) was 0.014, the sIL-6 (1.23E2 nM) was 0.030 and the sIL-17A (1.23E2 nM) was 0.185. The sIL-17F (1.23E2 nM) was -0.282, the sTNF-alpha (1.23E2 nM) was 0.057 and the “B cell Proliferation” value (1.37E1 nM) was -0.012. The “PBMC Cytotoxicity” value (1.37E1 nM) was 0.011, the “Secreted IgG” value (1.37E1 nM) was -0.141 and the sIL-2 (1.37E1 nM) was 0.014. The sIL-6 (1.37E1 nM) was 0.027, the sIL-17A (1.37E1 nM) was 0.187 and the sIL-17F (1.37E1 nM) was -0.0019. The sTNF-alpha (1.37E1 nM) was 0.046, the “B cell Proliferation” value (3.33E3 nM) was -0.018 and the “PBMC Cytotoxicity” value (3.33E3 nM) was -0.00188. For the same molecule, the “Secreted IgG” value (3.33E3 nM) was -0.298, the sIL-2 (3.33E3 nM) was -0.066 and the sIL-6 (3.33E3 nM) was 0.010. For the same molecule, the sIL-17A (3.33E3 nM) was 0.312, the sIL-17F (3.33E3 nM) was -0.374 and the sTNF-alpha (3.33E3 nM) was 0.093. The “B cell Proliferation” value (3.70E2 nM) was -0.072, the “PBMC Cytotoxicity” value (3.70E2 nM) was -0.003 and the “Secreted IgG” value (3.70E2 nM) was -0.278. The sIL-2 (3.70E2 nM) was -0.005, the sIL-6 (3.70E2 nM) was -0.000869 and the sIL-17A (3.70E2 nM) was 0.240. The sIL-17F (3.70E2 nM) was -0.290, the sTNF-alpha (3.70E2 nM) was 0.057 and the “B cell Proliferation” value (4.12E1 nM) was -0.040. The “PBMC Cytotoxicity” value (4.12E1 nM) was -0.011, the “Secreted IgG” value (4.12E1 nM) was -0.161 and the sIL-2 (4.12E1 nM) was 0.032. The sIL-6 (4.12E1 nM) was 0.045, the sIL-17A (4.12E1 nM) was 0.263 and the sIL-17F (4.12E1 nM) was -0.163. For the same molecule, the sTNF-alpha (4.12E1 nM) was 0.025, the “B cell Proliferation” value (4.57E0 nM) was 0.00188 and the “PBMC Cytotoxicity” value (4.57E0 nM) was 0.009. The “Secreted IgG” value (4.57E0 nM) was 0.00642, the sIL-2 (4.57E0 nM) was 0.059 and the sIL-6 (4.57E0 nM) was -0.013. It also gave a sIL-17A (4.57E0 nM) of 0.029, a sIL-17F (4.57E0 nM) of -0.027 and a sTNF-alpha (4.57E0 nM) of 0.044. For the same molecule, the CCL2/MCP-1 (1.00E4 nM) was -0.062, the CD54/ICAM-1 (1.00E4 nM) was -0.066 and the CD106/VCAM-1 (1.00E4 nM) was 0.015. For the same molecule, the CXCL8/IL-8 (1.00E4 nM) was -0.071, the CXCL9/MIG (1.00E4 nM) was -0.035 and the CXCL10/IP-10 (1.00E4 nM) was 0.016. For the same molecule, the CXCL11/I-TAC (1.00E4 nM) was -0.012, the “Collagen I” value (1.00E4 nM) was 0.017 and the “Collagen III” value (1.00E4 nM) was 0.028. The EGFR (1.00E4 nM) was -0.096, the M-CSF (1.00E4 nM) was -0.031 and the MMP-1 (1.00E4 nM) was -0.059. For the same molecule, the PAI-I (1.00E4 nM) was -0.088, the Proliferation_72hr (1.00E4 nM) was -0.248 and the SRB (1.00E4 nM) was -0.00367. The TIMP-1 (1.00E4 nM) was -0.111, the TIMP-2 (1.00E4 nM) was -0.065 and the CCL2/MCP-1 (1.11E3 nM) was -0.100. For the same molecule, the CD54/ICAM-1 (1.11E3 nM) was -0.070, the CD106/VCAM-1 (1.11E3 nM) was 0.050 and the CXCL8/IL-8 (1.11E3 nM) was -0.111. The CXCL9/MIG (1.11E3 nM) was -0.045, the CXCL10/IP-10 (1.11E3 nM) was 0.029 and the CXCL11/I-TAC (1.11E3 nM) was -0.023. For the same molecule, the “Collagen I” value (1.11E3 nM) was -0.003, the “Collagen III” value (1.11E3 nM) was 0.052 and the EGFR (1.11E3 nM) was -0.103. It also gave a M-CSF (1.11E3 nM) of -0.041, an MMP-1 (1.11E3 nM) of -0.071 and a PAI-I (1.11E3 nM) of -0.065. For the same molecule, the Proliferation_72hr (1.11E3 nM) was -0.244, the SRB (1.11E3 nM) was -0.002 and the TIMP-1 (1.11E3 nM) was -0.078. The TIMP-2 (1.11E3 nM) was 0.064, the CCL2/MCP-1 (1.23E2 nM) was -0.076 and the CD54/ICAM-1 (1.23E2 nM) was -0.078. The CD106/VCAM-1 (1.23E2 nM) was 0.069, the CXCL8/IL-8 (1.23E2 nM) was -0.081 and the CXCL9/MIG (1.23E2 nM) was -0.042. The CXCL10/IP-10 (1.23E2 nM) was 0.037, the CXCL11/I-TAC (1.23E2 nM) was -0.032 and the “Collagen I” value (1.23E2 nM) was 0.025. For the same molecule, the “Collagen III” value (1.23E2 nM) was 0.068, the EGFR (1.23E2 nM) was -0.097 and the M-CSF (1.23E2 nM) was -0.068. The MMP-1 (1.23E2 nM) was -0.042, the PAI-I (1.23E2 nM) was -0.031 and the Proliferation_72hr (1.23E2 nM) was -0.191. For the same molecule, the SRB (1.23E2 nM) was 0.024, the TIMP-1 (1.23E2 nM) was -0.068 and the TIMP-2 (1.23E2 nM) was 0.076. The CCL2/MCP-1 (1.37E1 nM) was -0.043, the CD54/ICAM-1 (1.37E1 nM) was -0.058 and the CD106/VCAM-1 (1.37E1 nM) was 0.069. The CXCL8/IL-8 (1.37E1 nM) was -0.024, the CXCL9/MIG (1.37E1 nM) was -0.012 and the CXCL10/IP-10 (1.37E1 nM) was 0.038. For the same molecule, the CXCL11/I-TAC (1.37E1 nM) was -0.002, the “Collagen I” value (1.37E1 nM) was 0.048 and the “Collagen III” value (1.37E1 nM) was 0.094. The EGFR (1.37E1 nM) was -0.067, the M-CSF (1.37E1 nM) was -0.052 and the MMP-1 (1.37E1 nM) was 0.006. It also gave a PAI-I (1.37E1 nM) of 0.00043, a Proliferation_72hr (1.37E1 nM) of -0.130 and an SRB (1.37E1 nM) of 0.016. The TIMP-1 (1.37E1 nM) was -0.033, the TIMP-2 (1.37E1 nM) was 0.049 and the CCL2/MCP-1 (3.33E3 nM) was -0.117. The CD54/ICAM-1 (3.33E3 nM) was -0.064, the CD106/VCAM-1 (3.33E3 nM) was 0.050 and the CXCL8/IL-8 (3.33E3 nM) was -0.103. The CXCL9/MIG (3.33E3 nM) was -0.054, the CXCL10/IP-10 (3.33E3 nM) was 0.032 and the CXCL11/I-TAC (3.33E3 nM) was -0.022. The “Collagen I” value (3.33E3 nM) was 0.006, the “Collagen III” value (3.33E3 nM) was 0.051 and the EGFR (3.33E3 nM) was -0.111. For the same molecule, the M-CSF (3.33E3 nM) was -0.031, the MMP-1 (3.33E3 nM) was -0.057 and the PAI-I (3.33E3 nM) was -0.062. The Proliferation_72hr (3.33E3 nM) was -0.194, the SRB (3.33E3 nM) was -0.008 and the TIMP-1 (3.33E3 nM) was -0.075. It also gave a TIMP-2 (3.33E3 nM) of -0.041, a CCL2/MCP-1 (3.70E2 nM) of -0.066 and a CD54/ICAM-1 (3.70E2 nM) of -0.075. It also gave a CD106/VCAM-1 (3.70E2 nM) of 0.067, a CXCL8/IL-8 (3.70E2 nM) of -0.100 and a CXCL9/MIG (3.70E2 nM) of -0.034. For the same molecule, the CXCL10/IP-10 (3.70E2 nM) was 0.040, the CXCL11/I-TAC (3.70E2 nM) was -0.017 and the “Collagen I” value (3.70E2 nM) was 0.018. For the same molecule, the “Collagen III” value (3.70E2 nM) was 0.066, the EGFR (3.70E2 nM) was -0.123 and the M-CSF (3.70E2 nM) was -0.056. It also gave an MMP-1 (3.70E2 nM) of -0.053, a PAI-I (3.70E2 nM) of -0.013 and a Proliferation_72hr (3.70E2 nM) of -0.187. The SRB (3.70E2 nM) was 0.021, the TIMP-1 (3.70E2 nM) was -0.069 and the TIMP-2 (3.70E2 nM) was 0.123. It also gave a CCL2/MCP-1 (4.12E1 nM) of -0.141, a CD54/ICAM-1 (4.12E1 nM) of -0.066 and a CD106/VCAM-1 (4.12E1 nM) of 0.066. The CXCL8/IL-8 (4.12E1 nM) was -0.049.
